From patent US20240197756A1, “METHODS OF TREATMENT WITH NEUROACTIVE STEROIDS” (priority 2021, published 2024)
Entries after “also recorded” stand apart in the source; their conditions may differ.

Key:
[1] = system: GABAA receptors; assay: Pre-clinical qEEG beta power and animal models of anxiety and depression; assay type: in vivo; conditions: pre-clinical studies
[2] = system: patients with severe major depressive disorder (MDD); assay: Open-label study in severe MDD, Part A efficacy (HAM-D); assay type: in vivo, human; conditions: for patients meeting the HAM-D Response or Remission criteria: Day 15
Method: The study is an open-label, study comprised of two dosing periods, Part A and Part B, during which patients were treated with an oral suspension of Compound 1. Part A was an open-label assessment of two dose levels of Compound 1 (45 mg qHS Cohort 1 and 80 mg qHS Cohort, i.e., once daily administration at bedtime) administered for 7 days inpatient followed by 7 days outpatient. Compound 1 was administered at 4 p.m. on Day 1 in order to collect post-dosing PK samples that could not be collected with qHS dosing.
(§1) In Part A, participants were administered daily doses of Compound 1 (45 mg Cohort and 80 mg Cohort) at 4 p.m. on Day 1 and qHS on all other study days for 7 days inpatient followed by 7 days outpatient (with subsequent Cohorts receiving up to 120 mg qHS). Participants checked into the clinic on Day 1. During this period the following assessments were performed: adverse event assessments, vital signs, physical examinations, blood and urine samples for safety assessments, ECGs, C-SSRS assessments, blood samples for PK, and efficacy assessments (HAM-D, MADRS, HAM-A, CGI [CGI-S and CGI-I], PSQI, and SDQ). Baseline assessments occurred on Day 1 prior to administration of study drug. On Day 8, prior to discharge, participants were supplied with sufficient Compound 1 to complete 7 days of dosing.
Patients were administered daily doses of Compound 1 for 7 days inpatient followed by 7 days outpatient.
In the 45 mg Cohort, patients were administered once daily dose of 45 mg of Compound 1 at bedtime for 7 days inpatient followed by once daily dose of 45 mg of Compound 1 at bedtime for 7 days outpatient.
In the 80 mg Cohort, patients were administered once daily dose of 80 mg of Compound 1 at bedtime for 7 days inpatient followed by once daily dose of 80 mg of Compound 1 at bedtime for 7 days outpatient.
Part A: In Part A, HAM-D, MADRS, HAM-A, CGI-S, and CGI-I values were collected in the morning of Days 1, 2, 3, 4, 5, 6, 7, 8, 15, 21 and 28. PSQI and SDQ values will be collected on Days 1, 8, 15, 21 and 28. Part B: In Part B, HAM-D, MADRS, HAM-A, CGI-S, CGI-I, PSQI and SDQ values will be collected on the days described for Part A.
HAM-D Response was defined as a reduction from baseline of ≥50% in total HAM-D score. HAM-D remission was defined as a total HAM-D score of ≤7.
Efficacy analysis: For both parts of the clinical trial, the HAM-D total score and change from baseline values will be summarized by treatment group and time point. In addition, the change from baseline in HAM-D total score will also be analyzed using paired t-tests or similar methods. The null hypothesis of this test is that the mean difference in HAM-D total score between paired observations (i.e., pre- and post-treatment) is zero. Similar analysis methods will be used for all secondary and exploratory efficacy variables.

[3] = Safety and tolerability in MDD patients (Part A); assay type: in vivo, human; conditions: 80 mg once daily for 14 days in MDD patients
Method: as §1

## COC[C@@]1(O)CC[C@@]2(C)[C@@H](CC[C@@H]3[C@@H]2CC[C@]2(C)[C@@H](C(=O)Cn4ccnc4)CC[C@@H]32)C1 [Compound 1, 3α-Hydroxy-3β-methoxymethyl-21-(1′-imidazolyl)-5α-pregnan-20-one]
[1]
  increase in beta power associated with robust activity in animal models of anxiety and depression: 1.6 fold
[2]; 45 mg Cohort (qHS), Day 7
  patients meeting the HAM-D Response or Remission criterion: 11 of the 13
[2]; 45 mg Cohort (qHS)
  patients meeting the HAM-D Response or Remission criteria: 8 of the 13
[2]; 80 mg Cohort (qHS)
  patients meeting the HAM-D Response or Remission criteria: 6 of the 7
[2]; as monotherapy (no background antidepressant) and in combination with another antidepressant
  Efficacy (reduction Mean Change from Baseline in HAM-D score): observed
[2]; daily dose of 45 mg or 80 mg
  symptoms of MDD: reduced symptoms of moderate to severe MDD
[2]; patients in first course of antidepressant treatment and patients that failed previous courses
  Efficacy (reduction Mean Change from Baseline in HAM-D score): observed
[3]
  tolerability: well tolerated with no change in Adverse Event profile; also recorded: well-tolerated
